Where only a bound is given, the exact number is not on record here.

Type in all cases: biochemical
For one assay, the target named is T1, EPHB4 (Homo sapiens, UniProt P54760).
T1 construct: Kinases are expressed as either kinase domains or full length constructs; made in house
T1 sequence (P54760 16-987): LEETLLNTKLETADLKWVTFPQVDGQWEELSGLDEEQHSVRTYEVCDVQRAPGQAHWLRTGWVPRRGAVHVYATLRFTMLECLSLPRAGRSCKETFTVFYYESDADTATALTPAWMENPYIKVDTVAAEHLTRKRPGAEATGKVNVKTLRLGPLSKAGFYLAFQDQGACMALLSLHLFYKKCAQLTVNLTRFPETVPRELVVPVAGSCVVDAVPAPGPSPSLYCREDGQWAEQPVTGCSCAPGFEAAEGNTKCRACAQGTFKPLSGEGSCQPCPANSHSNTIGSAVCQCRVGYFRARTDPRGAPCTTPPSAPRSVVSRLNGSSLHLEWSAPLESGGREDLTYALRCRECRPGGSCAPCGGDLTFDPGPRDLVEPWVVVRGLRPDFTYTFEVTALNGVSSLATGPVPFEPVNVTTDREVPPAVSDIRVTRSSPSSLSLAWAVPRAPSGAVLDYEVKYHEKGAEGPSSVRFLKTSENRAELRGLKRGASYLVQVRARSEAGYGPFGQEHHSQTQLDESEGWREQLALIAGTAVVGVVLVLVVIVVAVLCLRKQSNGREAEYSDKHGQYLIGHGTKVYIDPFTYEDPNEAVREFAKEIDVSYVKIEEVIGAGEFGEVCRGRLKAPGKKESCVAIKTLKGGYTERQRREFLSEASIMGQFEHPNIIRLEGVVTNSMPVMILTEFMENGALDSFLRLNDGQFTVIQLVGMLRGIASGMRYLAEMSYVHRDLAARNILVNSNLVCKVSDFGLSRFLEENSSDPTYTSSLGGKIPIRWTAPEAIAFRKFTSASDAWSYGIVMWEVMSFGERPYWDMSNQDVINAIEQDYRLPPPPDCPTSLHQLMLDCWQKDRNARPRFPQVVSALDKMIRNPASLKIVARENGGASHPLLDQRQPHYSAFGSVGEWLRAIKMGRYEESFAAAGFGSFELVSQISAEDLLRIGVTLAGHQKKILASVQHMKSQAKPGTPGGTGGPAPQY
The experiment in a line: Kinase inhibition assay (33P transfer), EPHB4. The following applies: read-out: EPHB4-1.

In another assay the target is T2, c-Met (Homo sapiens, UniProt P08581).
T2 construct: Kinases are expressed as either kinase domains or full length constructs; made in house
The experiment in a line: Kinase inhibition assay (33P transfer), c-Met. The settings on record: Table 2, kinase inhibition class; read-out: Met-1. Summed up:
(§1)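 Steps: coat wells with poly(Glu,Tyr) 4:1 or poly(Arg,Ser) 3:1; add purified kinase, [33P]ATP and inhibitor; incubate; wash with 0.5% phosphoric acid; add liquid scintillant; count. IC50 corresponds to half-maximal reduction of bound 33P.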

Another assay has as its target T3, IGFR-1 (Homo sapiens, UniProt P08069).
T3 construct: Kinases are expressed as either kinase domains or full length constructs; made in house
The assay can be described thus: Kinase inhibition assay (33P transfer), IGFR-1. The settings on record: Table 2, kinase inhibition class.

The target in another assay is T4, ErbB4 (Homo sapiens, UniProt Q15303).
T4 construct: Kinases are expressed as either kinase domains or full length constructs; made in house
T4 sequence (Q15303 26-1308, species assumed): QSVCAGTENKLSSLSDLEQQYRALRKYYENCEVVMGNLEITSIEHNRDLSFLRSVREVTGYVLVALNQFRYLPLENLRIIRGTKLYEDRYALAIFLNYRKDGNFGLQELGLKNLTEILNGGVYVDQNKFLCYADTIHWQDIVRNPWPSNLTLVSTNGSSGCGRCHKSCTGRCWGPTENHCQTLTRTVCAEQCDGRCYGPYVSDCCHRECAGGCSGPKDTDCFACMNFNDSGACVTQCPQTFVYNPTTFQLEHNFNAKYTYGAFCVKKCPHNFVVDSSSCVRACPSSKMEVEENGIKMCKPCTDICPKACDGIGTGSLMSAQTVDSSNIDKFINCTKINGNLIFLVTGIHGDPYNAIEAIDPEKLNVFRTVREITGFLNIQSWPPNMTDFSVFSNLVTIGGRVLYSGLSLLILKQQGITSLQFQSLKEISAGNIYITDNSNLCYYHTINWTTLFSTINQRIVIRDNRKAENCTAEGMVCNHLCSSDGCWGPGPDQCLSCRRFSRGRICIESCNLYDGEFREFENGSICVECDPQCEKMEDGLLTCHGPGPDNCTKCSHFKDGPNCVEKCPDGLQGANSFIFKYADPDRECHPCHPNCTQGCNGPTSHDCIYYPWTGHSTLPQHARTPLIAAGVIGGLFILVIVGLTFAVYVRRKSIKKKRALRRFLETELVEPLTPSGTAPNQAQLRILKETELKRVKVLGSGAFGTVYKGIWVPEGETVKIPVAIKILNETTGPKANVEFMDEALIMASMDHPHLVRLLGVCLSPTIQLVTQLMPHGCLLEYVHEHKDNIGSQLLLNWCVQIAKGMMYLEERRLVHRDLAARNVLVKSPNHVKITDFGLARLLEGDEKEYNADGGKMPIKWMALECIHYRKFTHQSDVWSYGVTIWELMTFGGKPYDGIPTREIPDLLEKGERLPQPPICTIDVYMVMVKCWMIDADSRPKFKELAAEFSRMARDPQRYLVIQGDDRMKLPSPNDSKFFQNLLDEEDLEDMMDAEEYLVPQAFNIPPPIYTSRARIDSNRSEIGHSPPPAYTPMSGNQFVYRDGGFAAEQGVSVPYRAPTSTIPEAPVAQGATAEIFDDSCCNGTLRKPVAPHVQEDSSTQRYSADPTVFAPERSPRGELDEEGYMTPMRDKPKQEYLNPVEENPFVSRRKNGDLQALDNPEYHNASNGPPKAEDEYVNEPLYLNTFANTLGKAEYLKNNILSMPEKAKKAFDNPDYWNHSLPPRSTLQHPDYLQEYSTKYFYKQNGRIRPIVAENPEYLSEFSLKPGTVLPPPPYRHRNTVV
The assay can be described thus: Kinase inhibition assay (33P transfer), ErbB4. The following applies: read-out: ErbB4-1.

The target in another assay is T5, Lck (Homo sapiens, UniProt P06239).
T5 construct: Kinases are expressed as either kinase domains or full length constructs; made in house
T5 sequence (P06239 whole entry, species assumed, the tested form may be a part): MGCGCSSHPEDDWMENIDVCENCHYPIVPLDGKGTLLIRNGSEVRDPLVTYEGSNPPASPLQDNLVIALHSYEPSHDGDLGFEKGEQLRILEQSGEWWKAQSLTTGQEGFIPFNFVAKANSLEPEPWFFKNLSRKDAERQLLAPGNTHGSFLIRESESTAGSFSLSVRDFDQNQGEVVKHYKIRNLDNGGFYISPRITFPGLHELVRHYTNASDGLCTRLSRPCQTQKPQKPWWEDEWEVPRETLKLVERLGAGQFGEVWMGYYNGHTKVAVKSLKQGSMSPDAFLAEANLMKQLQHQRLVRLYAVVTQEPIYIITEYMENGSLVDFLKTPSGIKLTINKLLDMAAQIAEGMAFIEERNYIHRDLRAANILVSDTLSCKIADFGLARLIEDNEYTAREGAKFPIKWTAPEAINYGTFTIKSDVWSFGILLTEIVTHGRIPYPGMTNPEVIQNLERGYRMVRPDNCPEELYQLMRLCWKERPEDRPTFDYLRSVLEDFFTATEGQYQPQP
The experiment in a line: Kinase inhibition assay (33P transfer), Lck. The settings on record: Table 3; read-out: Lck-1. The method, boiled down:
(§2)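 Radiometric readout: 33P incorporated into surface-bound poly(Glu,Tyr) 4:1 or poly(Arg,Ser) 3:1 is counted by liquid scintillation after a 0.5% phosphoric acid wash. Enzymes were GST or polyHis fusions (kinase domain or full length) from E. coli or High Five insect cells.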

The next assay deals with T6, AKT (Homo sapiens, UniProt Q9Y243).
T6 construct: Kinases are expressed as either kinase domains or full length constructs; made in house
T6 sequence (Q9Y243 whole entry, the tested form may be a part): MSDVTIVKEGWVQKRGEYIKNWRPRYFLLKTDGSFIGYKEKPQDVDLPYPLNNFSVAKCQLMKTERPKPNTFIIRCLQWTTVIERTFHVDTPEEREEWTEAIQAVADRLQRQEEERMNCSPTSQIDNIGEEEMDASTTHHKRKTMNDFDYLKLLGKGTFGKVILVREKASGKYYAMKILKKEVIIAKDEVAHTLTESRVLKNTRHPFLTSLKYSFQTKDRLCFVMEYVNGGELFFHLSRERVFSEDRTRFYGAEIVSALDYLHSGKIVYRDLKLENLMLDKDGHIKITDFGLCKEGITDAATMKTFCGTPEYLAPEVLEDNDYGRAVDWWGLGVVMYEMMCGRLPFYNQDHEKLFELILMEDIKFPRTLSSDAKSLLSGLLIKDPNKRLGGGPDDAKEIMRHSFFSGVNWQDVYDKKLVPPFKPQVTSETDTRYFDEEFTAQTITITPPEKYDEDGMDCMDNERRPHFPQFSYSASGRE
The assay can be described thus: Kinase inhibition assay (33P transfer), AKT. The following applies: Table 2, kinase inhibition class; read-out: AKT3-1. Summed up: as §2

For another assay, the target named is T7, Itk (Homo sapiens, UniProt Q08881).
T7 construct: Kinases are expressed as either kinase domains or full length constructs; made in house
T7 sequence (Q08881 1-620): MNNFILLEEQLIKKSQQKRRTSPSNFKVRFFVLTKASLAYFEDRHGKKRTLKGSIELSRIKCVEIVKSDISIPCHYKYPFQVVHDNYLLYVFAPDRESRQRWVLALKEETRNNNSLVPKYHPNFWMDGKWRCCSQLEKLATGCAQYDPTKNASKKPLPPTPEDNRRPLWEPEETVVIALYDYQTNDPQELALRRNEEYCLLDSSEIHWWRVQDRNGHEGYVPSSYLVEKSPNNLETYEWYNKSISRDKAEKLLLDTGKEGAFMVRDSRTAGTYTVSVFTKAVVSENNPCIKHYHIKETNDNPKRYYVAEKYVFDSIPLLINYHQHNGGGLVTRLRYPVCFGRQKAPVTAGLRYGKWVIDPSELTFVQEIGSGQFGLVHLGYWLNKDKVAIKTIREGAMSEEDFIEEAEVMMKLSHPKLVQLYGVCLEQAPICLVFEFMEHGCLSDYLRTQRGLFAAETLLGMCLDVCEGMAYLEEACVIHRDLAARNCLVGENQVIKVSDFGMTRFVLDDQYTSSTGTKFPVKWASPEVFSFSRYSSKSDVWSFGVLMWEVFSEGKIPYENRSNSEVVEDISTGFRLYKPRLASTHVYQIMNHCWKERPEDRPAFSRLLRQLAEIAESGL
The experiment in a line: Kinase inhibition assay (33P transfer), Itk. The following applies: Table 3; read-out: Itk-1. Summed up:
as §1

The target of the next assay is T8, Zap-70 (Homo sapiens, UniProt P43403).
T8 construct: Kinases are expressed as either kinase domains or full length constructs; made in house
T8 sequence (P43403 1-619): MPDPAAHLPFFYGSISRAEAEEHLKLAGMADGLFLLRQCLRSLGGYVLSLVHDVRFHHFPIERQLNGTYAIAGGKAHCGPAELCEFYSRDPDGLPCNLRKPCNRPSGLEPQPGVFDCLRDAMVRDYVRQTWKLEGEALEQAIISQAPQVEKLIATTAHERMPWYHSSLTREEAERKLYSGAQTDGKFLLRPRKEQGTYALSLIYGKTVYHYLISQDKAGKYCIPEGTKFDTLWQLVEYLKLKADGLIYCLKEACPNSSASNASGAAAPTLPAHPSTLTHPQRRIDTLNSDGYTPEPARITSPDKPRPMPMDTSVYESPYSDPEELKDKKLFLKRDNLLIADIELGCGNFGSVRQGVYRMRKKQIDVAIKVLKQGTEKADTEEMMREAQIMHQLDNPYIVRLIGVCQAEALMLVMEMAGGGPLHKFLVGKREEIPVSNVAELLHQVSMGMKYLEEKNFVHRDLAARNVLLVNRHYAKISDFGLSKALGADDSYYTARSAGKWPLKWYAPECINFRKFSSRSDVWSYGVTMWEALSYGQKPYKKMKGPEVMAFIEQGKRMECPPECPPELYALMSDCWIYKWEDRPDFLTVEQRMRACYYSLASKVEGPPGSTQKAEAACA
The assay can be described thus: Kinase inhibition assay (33P transfer), Zap-70. The following applies: Table 3; read-out: Zap-1. Summed up:
as §2

For a further assay, the target named is T9, Kdr (Homo sapiens, UniProt P35968).
T9 construct: Kinases are expressed as either kinase domains or full length constructs; made in house
T9 sequence (P35968 20-1356, species assumed): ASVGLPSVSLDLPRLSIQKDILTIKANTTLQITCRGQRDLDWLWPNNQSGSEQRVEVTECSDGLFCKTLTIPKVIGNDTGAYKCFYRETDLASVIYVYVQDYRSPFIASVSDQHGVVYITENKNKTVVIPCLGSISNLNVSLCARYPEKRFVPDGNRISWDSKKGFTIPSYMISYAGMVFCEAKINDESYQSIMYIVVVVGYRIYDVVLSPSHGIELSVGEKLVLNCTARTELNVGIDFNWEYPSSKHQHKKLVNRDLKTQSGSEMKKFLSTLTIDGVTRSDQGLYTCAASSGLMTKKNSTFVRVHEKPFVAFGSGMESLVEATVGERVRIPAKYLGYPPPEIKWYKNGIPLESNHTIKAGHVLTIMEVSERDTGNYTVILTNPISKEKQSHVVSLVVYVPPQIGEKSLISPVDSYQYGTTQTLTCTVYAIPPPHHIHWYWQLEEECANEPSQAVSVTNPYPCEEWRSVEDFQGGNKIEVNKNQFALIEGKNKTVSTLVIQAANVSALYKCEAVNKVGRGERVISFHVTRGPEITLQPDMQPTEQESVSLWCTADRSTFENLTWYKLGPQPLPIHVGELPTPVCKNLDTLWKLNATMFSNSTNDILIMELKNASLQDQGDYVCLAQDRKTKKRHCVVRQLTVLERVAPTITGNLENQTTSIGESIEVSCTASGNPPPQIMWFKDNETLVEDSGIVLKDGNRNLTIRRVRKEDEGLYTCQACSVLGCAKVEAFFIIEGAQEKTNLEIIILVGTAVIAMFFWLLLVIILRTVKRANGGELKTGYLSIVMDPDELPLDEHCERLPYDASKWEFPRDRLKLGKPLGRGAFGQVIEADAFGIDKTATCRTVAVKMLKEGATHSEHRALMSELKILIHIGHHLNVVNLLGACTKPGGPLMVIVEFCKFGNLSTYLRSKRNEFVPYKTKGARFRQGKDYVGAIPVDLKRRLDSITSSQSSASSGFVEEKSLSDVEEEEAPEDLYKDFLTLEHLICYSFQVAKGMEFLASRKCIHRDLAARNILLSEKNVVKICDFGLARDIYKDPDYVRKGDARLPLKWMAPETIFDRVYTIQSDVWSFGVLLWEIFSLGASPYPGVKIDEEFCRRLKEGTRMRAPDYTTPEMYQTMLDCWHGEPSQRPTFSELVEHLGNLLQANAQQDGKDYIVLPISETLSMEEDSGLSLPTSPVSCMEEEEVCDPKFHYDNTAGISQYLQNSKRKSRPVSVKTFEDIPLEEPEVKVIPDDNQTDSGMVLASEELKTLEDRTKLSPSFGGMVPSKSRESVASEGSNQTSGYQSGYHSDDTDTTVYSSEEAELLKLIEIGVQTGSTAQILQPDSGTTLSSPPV
The assay can be described thus: Kinase inhibition assay (33P transfer), Kdr. The settings on record: Table 3; read-out: KDR-1. The method, boiled down: as §2

Another assay addresses T10, Tek (Homo sapiens, UniProt Q02763).
T10 construct: Kinases are expressed as either kinase domains or full length constructs; made in house
The experiment in a line: Kinase inhibition assay (33P transfer), Tek. The following applies: read-out: Tek-1. The method, boiled down: as §1

A further assay addresses T11, EGFR (Homo sapiens, UniProt P00533).
T11 construct: Kinases are expressed as either kinase domains or full length constructs; made in house
The assay can be described thus: Kinase inhibition assay (33P transfer), EGFR. The settings on record: Table 2, kinase inhibition class; read-out: EGFR-1. The method, boiled down:
as §1

T11 sequence (P00533 25-1210, species assumed): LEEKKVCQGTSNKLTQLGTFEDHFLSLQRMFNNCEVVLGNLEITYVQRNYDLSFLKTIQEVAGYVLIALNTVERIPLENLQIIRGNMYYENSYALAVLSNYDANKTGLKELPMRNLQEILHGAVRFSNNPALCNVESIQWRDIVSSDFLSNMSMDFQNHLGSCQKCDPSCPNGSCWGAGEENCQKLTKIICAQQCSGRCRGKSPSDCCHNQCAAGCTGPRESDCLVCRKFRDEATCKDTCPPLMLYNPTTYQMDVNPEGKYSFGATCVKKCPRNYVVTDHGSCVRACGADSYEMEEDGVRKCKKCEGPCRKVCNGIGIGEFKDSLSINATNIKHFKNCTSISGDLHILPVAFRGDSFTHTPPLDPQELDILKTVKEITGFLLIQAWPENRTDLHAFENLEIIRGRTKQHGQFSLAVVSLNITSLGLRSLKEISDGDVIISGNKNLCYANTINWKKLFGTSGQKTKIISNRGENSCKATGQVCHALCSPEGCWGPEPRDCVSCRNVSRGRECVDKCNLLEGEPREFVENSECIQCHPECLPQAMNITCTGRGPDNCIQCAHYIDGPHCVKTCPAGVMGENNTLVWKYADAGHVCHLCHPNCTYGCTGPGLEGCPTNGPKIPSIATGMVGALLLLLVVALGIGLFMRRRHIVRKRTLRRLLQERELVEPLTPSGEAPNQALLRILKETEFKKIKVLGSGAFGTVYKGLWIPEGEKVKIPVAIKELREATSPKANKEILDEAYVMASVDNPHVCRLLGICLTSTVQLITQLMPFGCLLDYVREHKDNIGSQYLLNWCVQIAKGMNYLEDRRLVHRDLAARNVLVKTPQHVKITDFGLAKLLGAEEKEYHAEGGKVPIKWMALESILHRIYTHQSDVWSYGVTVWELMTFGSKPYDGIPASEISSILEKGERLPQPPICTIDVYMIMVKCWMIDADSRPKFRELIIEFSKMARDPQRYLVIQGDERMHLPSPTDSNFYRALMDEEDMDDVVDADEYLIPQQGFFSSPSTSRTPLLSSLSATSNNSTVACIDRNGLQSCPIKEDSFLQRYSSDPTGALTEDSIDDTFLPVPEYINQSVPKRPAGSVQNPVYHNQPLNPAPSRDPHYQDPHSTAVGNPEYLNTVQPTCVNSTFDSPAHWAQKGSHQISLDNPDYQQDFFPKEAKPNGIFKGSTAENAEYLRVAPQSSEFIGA

`COc1cc(Nc2ncnc(Nc3cccc(OC(F)(F)F)c3)n2)cc(OC)c1OC` [Compound 250]: the IC50 was over 10.3 µM on EPHB4; over 10.3 µM at c-Met; under 0.915 µM at IGFR-1; 0.915 to 5.49 µM at ErbB4; 0.915 to 5.49 µM on Lck; over 10.3 µM at AKT. Moreover, the IC50 on Itk was over 10.3 µM; at Zap-70, over 10.3 µM; on Kdr, 5.49 to 8 µM; at Tek, over 10.3 µM; at EGFR it was under 0.915 µM.
Take `Oc1cccc(Nc2ncnc(Nc3ccc(OCc4ccccc4)cc3)n2)c1` [Compound 159]: the IC50 on EPHB4 was 6.23 to 9.08 µM; on c-Met, 1.04 to 6.23 µM; on IGFR-1, 9.08 to 11.7 µM; on ErbB4 it was over 11.7 µM; at Lck it was over 11.7 µM; on AKT, 1.04 to 6.23 µM. Further, the IC50 on Itk was over 11.7 µM; on Zap-70, 6.23 to 9.08 µM; on Kdr, 6.23 to 9.08 µM; at Tek, 6.23 to 9.08 µM; at EGFR it was under 1.04 µM.
As to `COc1cc(Nc2ncnc(Nc3cccc(C(=O)O)c3)n2)cc(OC)c1OC` [Compound 933], the IC50 was 6.04 to 8.81 µM at EPHB4; over 11.3 µM on c-Met; 1.01 to 6.04 µM on IGFR-1; 1.01 to 6.04 µM at ErbB4; 1.01 to 6.04 µM at Lck; over 11.3 µM on AKT. Besides, the IC50 on Itk was over 11.3 µM; on Zap-70 it was over 11.3 µM; at Kdr it was 1.01 to 6.04 µM; on EGFR, under 1.01 µM.
Consider `COc1ccc(Nc2ncnc(Nc3ccccc3C)n2)cc1OC` [Compound 111], for which the IC50 on EPHB4 is over 13.3 µM; on c-Met, over 13.3 µM; at IGFR-1, under 1.19 µM; on ErbB4 it was over 13.3 µM; on Lck it was 1.19 to 7.11 µM; on AKT, over 13.3 µM. The IC50 was over 13.3 µM at Itk; over 13.3 µM at Zap-70; 1.19 to 7.11 µM on Kdr; over 13.3 µM on Tek; under 1.19 µM on EGFR.
For the compound `COc1cc(Nc2ncnc(Nc3cc(C)ccc3C)n2)cc(OC)c1OC` [Compound 932], the IC50 on EPHB4 is over 11.8 µM; at c-Met it was 6.29 to 9.18 µM; at IGFR-1, 1.05 to 6.29 µM; at ErbB4, 1.05 to 6.29 µM; on Lck, 1.05 to 6.29 µM; at AKT it was over 11.8 µM. Also, the IC50 is over 11.8 µM at Itk; over 11.8 µM on Zap-70; under 1.05 µM at Kdr; 6.29 to 9.18 µM at Tek; 1.05 to 6.29 µM on EGFR.
In the case of `COc1cc(Nc2ncnc(Nc3ccc(C)c([N+](=O)[O-])c3)n2)cc(OC)c1OC` [Compound 934], the IC50 at EPHB4 is 0.97 to 5.82 µM; at c-Met, over 10.9 µM; against IGFR-1 it was under 0.97 µM; on ErbB4, over 10.9 µM; on Lck, over 10.9 µM; at AKT, over 10.9 µM. Also, the IC50 on Itk was over 10.9 µM; at Zap-70 it was over 10.9 µM; at Kdr, 0.97 to 5.82 µM; at EGFR, 0.97 to 5.82 µM.
Consider `COc1ccc(Nc2ncnc(N(CC(=O)OC(C)(C)C)c3ccc4c(c3)OCO4)n2)cc1OC` [Compound 310], for which the IC50 at EPHB4 is over 9.35 µM; on c-Met, over 9.35 µM; on IGFR-1, 0.831 to 4.98 µM; on Lck, 0.831 to 4.98 µM; at AKT, over 9.35 µM; at Itk, over 9.35 µM. Besides, the IC50 on Zap-70 is over 9.35 µM; at Kdr it was 7.27 to 9.35 µM; on Tek, over 9.35 µM; on EGFR, 0.831 to 4.98 µM.
As for `COc1cc(Nc2ncnc(-n3c(Nc4ccc(Cl)cc4)nc4ccccc43)n2)cc(OC)c1OC` [Compound 375], the IC50 at EPHB4 was over 8.93 µM; on c-Met it was over 8.93 µM; at IGFR-1, over 8.93 µM; at Lck, 4.76 to 6.95 µM; on AKT, over 8.93 µM; at Itk, over 8.93 µM. The IC50 was over 8.93 µM at Zap-70, 0.794 to 4.76 µM on Kdr, over 8.93 µM on Tek and over 8.93 µM on EGFR.
In the case of `COc1cc(Nc2ncnc(Nc3ccc(-c4ccccc4)cc3)n2)cc(OC)c1OC` [Compound 100], the IC50 was 0.931 to 5.59 µM on EPHB4; over 10.5 µM at c-Met; 5.59 to 8.15 µM at IGFR-1; over 10.5 µM at Lck; 5.59 to 8.15 µM at AKT; over 10.5 µM on Itk. The IC50 at Zap-70 is 0.931 to 5.59 µM; at Kdr it was 0.931 to 5.59 µM; at Tek it was over 10.5 µM; at EGFR, 8.15 to 10.5 µM.
Consider `COc1cc(Nc2ncnc(Nc3ccc(NCc4ccccc4)cc3)n2)cc(OC)c1OC` [Compound 93], for which the IC50 on EPHB4, at c-Met, against IGFR-1, on Lck, at AKT and on Itk was over 9.81 µM throughout. The IC50 on Zap-70, at Kdr, on Tek and on EGFR was over 9.81 µM each time.

The record behind these values is patent US7074789B2, “Kinase inhibitors” (Amgen Inc., priority 1999, dated 2006).
